# Reference: ChEMBL document CHEMBL1134628, “Are free energy calculations useful in practice? A comparison with rapid scoring functions for the p38 MAP kinase protein system” (J Med Chem, 2001)
# Target: MAP kinase p38 (Homo sapiens, UniProt O15264+Q15759+Q16539+P53778)
# Test: Binding affinity against p38 MAP kinase system
# Type: protein assay
row,SMILES,pIC50
1,O=c1ncn2nc(Sc3ccc(F)c(Cl)c3)ccc2c1-c1c(Cl)cccc1Cl,6.301
2,Cc1cccc(Sc2ccc3c(-c4c(Cl)cccc4Cl)c(=O)ncn3n2)c1,5.854
3,Cc1ccccc1Sc1ccc2c(-c3c(Cl)cccc3Cl)c(=O)ncn2n1,6.699
4,O=c1ncn2nc(Sc3ccccc3)ccc2c1-c1c(Cl)cccc1Cl,6.602
5,Nc1cc(F)ccc1Sc1ccc2c(-c3c(Cl)cccc3Cl)c(=O)ncn2n1,6.658
6,O=c1ncn2nc(Sc3cccc(F)c3)ccc2c1-c1c(Cl)cccc1Cl,6.347
7,O=c1ncn2nc(Sc3ccccc3Br)ccc2c1-c1c(Cl)cccc1Cl,6.602
8,O=c1ncn2nc(Sc3cccc(Cl)c3)ccc2c1-c1c(Cl)cccc1Cl,6.553
9,Cc1cc(Cl)ccc1Sc1ccc2c(-c3c(Cl)cccc3Cl)c(=O)ncn2n1,6.745
10,O=c1ncn2nc(Sc3ccc(F)cc3Cl)ccc2c1-c1c(Cl)cccc1Cl,7.444

# The remaining lines, values ahead:
row,pIC50,SMILES
1,6.097,O=c1ncn2nc(Sc3ccc(Cl)c(Cl)c3)ccc2c1-c1c(Cl)cccc1Cl
2,6.444,O=c1ncn2nc(Sc3ccccc3O)ccc2c1-c1c(Cl)cccc1Cl
3,5.721,Cc1ccc(Sc2ccc3c(-c4c(Cl)cccc4Cl)c(=O)ncn3n2)cc1C
4,6.577,Cc1ccc(Sc2ccc3c(-c4c(Cl)cccc4Cl)c(=O)ncn3n2)c(C)c1
5,7,O=c1ncn2nc(Sc3ccc(F)cc3)ccc2c1-c1c(Cl)cccc1Cl
6,5.854,Cc1ccc(Sc2ccc3c(-c4c(Cl)cccc4Cl)c(=O)ncn3n2)cc1
